Experimental data from US9056067B2, “Pharmaceutical composition for enhancing immunity, and extract of Poria” (Sinphar Pharmaceutical Co., Ltd., priority 2003, dated 2015).

Assays:
Format in all cases: in vivo, mice
spleen cells = test: Spleen cell growth (MTT assay) after oral administration
Protocol: BALB/c male mice, 6-8 weeks old, were used throughout the experiment. The animals were purchased from National Laboratory Animal Center, Taipei, Taiwan. The mice were housed in the Individual Ventilation Cage System, which provided an environment of Specific Pyrogen-Free. The facilities had 12-h day/night rhythm, 24-26° C. and 30-70% humidity in air. Mice were fed autoclaved water and rodent chow, and the bedding was sterilized by autoclave also. The feedstock purchased from animal center of National Taiwan University composed of crude proteins (>23.0%), crude fat (>4.5%), crude fiber (<6.0%), ash (<8.0%), added minerals (<3.0%) and water (<12%). After transport, the mice were allowed to rest for two weeks before the experiments were started.
(§1) […] […] The control group was the mice feeding with an equal volume of saline (0.85% of NaCl). Mice were sacrificed at day five, and both the serum and spleen cells were collected. The sera were subsequently used to measure the concentration of IgG, IgM and IgA. The spleen cells were plated onto a 100 mm diameter culture plate and incubated at 37° C. for three hours. The non-adherent cells containing T-lymphocytes, B-lymphocytes and NK cells were collected and properly diluted as described in each assay.
The dry powder of PCM, PCM-K1, K-2, K-3 and K4 were suspended in sterile water, followed by sonication to break down the large particle. The suspension of fine particles was used to feed the animals.
(§2) The mouse to be sacrificed was cervical dislocated and sterilized with 70% ethanol. The cardiac punctuation was performed first to withdraw the blood. After the haemagglutination, the blood sample was subjected to centrifugation and the serum was collect. For isolation of spleen cells, the peritoneum was opened to remove the spleen. The fresh spleen was transferred to a culture plate containing 10 ml of RPMI-1640 culture medium. The spleen was then ground over a fine mesh to release the spleen cells. The spleen cells suspending in the medium were then removed and transferred to a 50-ml conical centrifuge tube. The tube was subjected to centrifugation at 1300 rpm for 10 min. The supernatant was discarded and the pellet was re-suspended in 1 ml of cold RBC lysing buffer containing EDTA-NH4Cl. The cells were incubated at room temperature for 10 min, followed by washing the cells three times with culture medium by centrifugation. The spleen cells were plated onto a 100 mm diameter culture plate and incubated at 37° C. for three hours. The non-adherent cells containing T-lymphocytes, B-lymphocytes and NK cells were collected and properly diluted as described in each assay.
MTT assay is the method routinely used for estimating the viable cell number and viability of the cultured cells. The basic principle is that the only mitochondria in a viable cells contain biologically activated oxido-reductive enzymes. The enzymes interact with MTT reagents to convert the chemical into a relatively insoluble blue crystal. The crystal is then solubilized in an acidic isopropanol and the absorbence at 570 nm in each well was read using an ELISA reader (EL311, BioTek, VT). Briefly, the spleen cells suspended in a medium containing RPMI 1640 supplemented with 10% fetal bovine serum (FBS), 2 mM L-glutamine, antibiotics and 1 μg/ml concanavalin A (Con A) were cultured in the 96-well flat-bottom plate (5×10^5 cells/100 μl/well) for 5 days. MTT assay was performed at day 3, 4 and 5. MTT tetrazolium (3-(4-5-dimethylthiazol-2-yl)-2,5-diphenyltertrazolium bromide) (5 mg/ml in phosphate-buffered saline) (Sigma Chemical, St. Louis, Mo.) was added to the spleen cells (20 μl MTT per 100 μl cells), and plates were incubated at 37° C. for 4 h. Acid-isopropanol (100 μl of 0.04 NHCL in isopropanol) was added to all wells and mixed completely to dissolve the dark blue crystals. After 20 minutes at room temperature to ensure that all crystals were dissolved, the plates were read on an EIA reader at 570 nm.

IgM = test: Serum level of IgM (ELISA); settings: for Dose with significant increase in serum level of IgM: oral
Protocol: as §1, §2
(§3) An ELISA was performed in our study to measure the immunoglobulin concentration. Briefly, the spleen cells (5×10^5 cells/ml) were cultured in a medium containing RPMI 1640 supplemented with 10% fetal bovine serum (FBS), 2 mM L-glutamine, antibiotics and 5 μg/ml lipopolysaccharide (LPS; 1 μg/10^5 cells) for 5 days. LPS is a polyclonal activator of B lymphocyte. Culture spleen cell supernatants were collected at day 3, 4 and 5. IgA, IgG and IgM concentrations were measured using a sandwich ELISA technique.
The procedure for IgM assay was similar to that for IgG assay, except that the samples were 1/10^4 diluted and standard IgM ranged from 1 μg/ml to 0.0156 μg/ml were added (100 μl/well). The secondary antibody for the assay was HRP-conjugated goat anti-mouse IgM (1:1,000 diluted; heavy chain-specific; Zymed Laboratory, CA).

IgA [1] = test: Serum level of IgA (ELISA); settings: for Effect on serum concentrations of IgA (in words): oral
Protocol: as §1, §2, §3
(§4) The procedure for IgA assay was similar to that for IgG assay, except that the samples were 1/10^4 diluted and standard IgA ranged from 1 μg/ml to 0.0156 μg/ml were added (100 μl/well). The secondary antibody for the assay was HRP-conjugated goat anti-mouse IgA (1:1000 diluted; Zymed Laboratory, CA).

IgA [2] = test: IgA secretion by spleen cells in vitro (LPS, ELISA) after oral administration
Protocol: as §1, §2, §3, §4

[3] = test system: immune cells (T cells/B cells); test: Immunity response tests (overall statement); settings: Table 2 to Table 10
Protocol: The Poria extract and the purified compounds from the Poria extract by chromatography prepared according to the methods of the present invention were tested by various immunity response experiments listed in the following.

[4] = oral 10 mg/kg/day for four days
[5] = oral 20 mg/kg/day for four days

SMILES	Spleen cell growth, absorbance at 570 nm (MTT assay), incubation day 3 (spleen cells; oral 5 mg/kg/day for four days)	Spleen cell growth, absorbance at 570 nm (MTT assay), incubation day 4 (spleen cells; oral 5 mg/kg/day for four days)	Spleen cell growth, absorbance at 570 nm (MTT assay), incubation day 5 (spleen cells; oral 5 mg/kg/day for four days)	Spleen cell growth, absorbance at 570 nm (MTT assay), incubation day 3 (spleen cells; [4])	Spleen cell growth, absorbance at 570 nm (MTT assay), incubation day 4 (spleen cells; [4])	Spleen cell growth, absorbance at 570 nm (MTT assay), incubation day 5 (spleen cells; [4])	Spleen cell growth, absorbance at 570 nm (MTT assay), incubation day 3 (spleen cells; [5])	Spleen cell growth, absorbance at 570 nm (MTT assay), incubation day 4 (spleen cells; [5])	Spleen cell growth, absorbance at 570 nm (MTT assay), incubation day 5 (spleen cells; [5])	Dose with significant increase in serum level of IgM (IgM)	Serum immunoglobulin concentration IgM (IgM; oral 5 mg/kg/day for four days)	Serum immunoglobulin concentration IgM (IgM; [4])	Serum immunoglobulin concentration IgM (IgM; [5])	Effect on serum concentrations of IgA (in words) (IgA [1])	Serum immunoglobulin concentration IgA (IgA [1]; oral 5 mg/kg/day for four days)	Serum immunoglobulin concentration IgA (IgA [1]; [4])	Serum immunoglobulin concentration IgA (IgA [1]; [5])	IgA secretion by spleen cell, incubation day 3 (IgA [2]; oral 5 mg/kg/day for four days)	IgA secretion by spleen cell, incubation day 4 (IgA [2]; oral 5 mg/kg/day for four days)	IgA secretion by spleen cell, incubation day 5 (IgA [2]; oral 5 mg/kg/day for four days)	other results
C=C(CCC(C(=O)O)C1C(O)CC2(C)C3=CCC4C(C)(CCC(O)C4(C)C)C3=CCC12C)C(C)C (stereo not shown) [K4]	0.949 ± 0.101	0.981 ± 0.087	0.862 ± 0.085	1.198 ± 0.101	1.273 ± 0.147	1.177 ± 0.078	1.233 ± 0.040	1.263 ± 0.041	1.061 ± 0.124	5 mg/kg/day	2.65 ± 0.21 mg/mL	2.86 ± 0.16 mg/mL	2.36 ± 0.16 mg/mL	no effect	3.33 ± 0.13 mg/mL	3.39 ± 0.25 mg/mL	3.54 ± 0.12 mg/mL	55.56 ± 4.71	79.51 ± 3.74	106.69 ± 7.29	IgA secretion by spleen cell, incubation day 3 (IgA [2]; [4]): 66.43 ± 5.26; IgA secretion by spleen cell, incubation day 4 (IgA [2]; [4]): 95.39 ± 10.08; IgA secretion by spleen cell, incubation day 5 (IgA [2]; [4]): 121.97 ± 12.69; IgA secretion by spleen cell, incubation day 3 (IgA [2]; [5]): 119.59 ± 15.08; IgA secretion by spleen cell, incubation day 4 (IgA [2]; [5]): 101.53 ± 25.08; IgA secretion by spleen cell, incubation day 5 (IgA [2]; [5]): 133.16 ± 20.09; Dose with increase in IgA secretion by spleen cells (IgA [2]; oral, PCM-K1 at day 3 and day 5): ≥ 5 mg/kg/day; Dosage at which potent [3]: potent at dosage low than 2.5 or 5.0; Immunity enhancement in immune cells (T cells/B cells) (in words) [3]: immunity enhancement activities
C=C(CC[C@@H](C(=O)O)[C@H]1[C@H](O)C[C@@]2(C)C3=CC[C@H]4C(C)(C)C(=O)CC[C@]4(C)C3=CC[C@]12C)C(C)C [K3]	1.154 ± 0.172	0.841 ± 0.160	0.864 ± 0.194	1.020 ± 0.090	0.900 ± 0.193	0.957 ± 0.200	1.103 ± 0.081	1.068 ± 0.132	0.943 ± 0.159	5 mg/kg/day	1.63 ± 0.11 mg/mL	1.53 ± 0.14 mg/mL	1.53 ± 0.13 mg/mL	no effect	3.65 ± 0.26 mg/mL	3.81 ± 0.46 mg/mL	3.55 ± 0.37 mg/mL	32.83 ± 7.00	27.37 ± 5.83	21.96 ± 4.17	Effect on IgA secretion by spleen cells (in words) (IgA [2]; oral): significantly suppressed; IgA secretion by spleen cell, incubation day 3 (IgA [2]; [4]): 26.57 ± 3.68; IgA secretion by spleen cell, incubation day 4 (IgA [2]; [4]): 28.97 ± 5.95; IgA secretion by spleen cell, incubation day 5 (IgA [2]; [4]): 18.87 ± 2.66; IgA secretion by spleen cell, incubation day 3 (IgA [2]; [5]): 43.08 ± 4.05; IgA secretion by spleen cell, incubation day 4 (IgA [2]; [5]): 43.45 ± 5.92; IgA secretion by spleen cell, incubation day 5 (IgA [2]; [5]): 30.50 ± 3.60; Dosage at which potent [3]: potent at dosage low than 2.5 or 5.0; Immunity enhancement in immune cells (T cells/B cells) (in words) [3]: immunity enhancement activities
